Measured values taken from US10369138B2, “Monobactam organic compounds for the treatment of bacterial infections” (Novartis AG, priority 2014, dated 2019).
In brackets after ≈: the same amount, converted by molar mass.

What was measured:
Type in all cases: cell-based
[1] = system: E. coli NB27273-CDY0026 (parent); test: MIC by broth microdilution, isogenic E. coli parent strain; settings: Escherichia coli, read-out: Strain 1 MIC
Experimental: (§1) Bacterial isolates were cultivated from −70° C. frozen stocks by two consecutive overnight passages at 35° C. in ambient air on 5% blood agar (Remel, Lenexa, Kans.). Quality control and P. aeruginosa ATCC 27853) is from the American Type Culture Collection (ATCC; Rockville, Md.) and PAO1 was received from Dr. K. Poole.
(§2) Strain NB27273 (BW25113 pspB::Km^r) was obtained from the Keio transposon insertion collection. The strain has the pspB gene replaced by a kanamycin resistance marker (BW25113 pspB::Km^r). This strain was cured of the transposon in pspB via FLP recombinase using published methodology. The resulting strain, BW25113 pspB, was used as a host for multicopy vectors expressing key β-lactamases. Multicopy plasmids directing constitutive expression of β-lactamases were established as follows: Synthetic, codon optimized genes encoding E. coli KPC2 and SHV12 β-lactamases were made by DNA2.0 (Palo Alto, Calif.). Each of the synthetic fragments were designed to contain NotI and NcoI restriction sites at their termini, allowing ligation into a NotI/NcoI digested pET28a(+) derivative for protein expression. […] The codon optimized nucleotide sequences and relevant primer recognition information is shown below:
(§3) The PCR products were then digested with XhoI and EcoRI and ligated into similarly digested plasmid pAH63-pstS(BlaP). Plasmid pAH63-pstS(BlaP) is a derivative of plasmid pAH63 (J Bacteriol: 183(21): 6384-6393) made by cloning the TEM-1 (bla) promoter and signal peptide encoding region from plasmid pBAD (J Bacteriol. 1995 July 177(14):4121-30) into plasmid pAH63. This fragment was PCR amplified from pBAD using primer pair E192 (ttcaCTGCAGtgaacgttgcgaagcaacggC) (SEQ ID NO:13) and E194 (TCGAggatcctcgagagcaaaaacaggaaggcaaaatgccg) (SEQ ID NO:14), digested with PstI and BamHI and inserted into similarly digested plasmid pAH63. Therefore, expression of β-lactamases from pAH63-pstS(BlaP) based constructs is constitutive and the signal sequence is provided to direct these proteins to the periplasm. […] To accomplish this, the inserts encompassing the β-lactamase genes, with the associated TEM promoter and signal sequences, were PCR amplified from their corresponding vectors using primer E269 (ccgTCTAGAcggatggcctttttgcgtttc) (SEQ ID NO:15) and E202 (aatcGAATTCttactgaccattaacgcccaagc) (SEQ ID NO:16) for the KPC2 construct and E204 (aatcGAATTCttaacgctgccagtgctcaatc) (SEQ ID NO:17) for the SHV12 construct. These fragments were then digested with XbaI and EcoRI, and each was inserted into pBAD18-kan that had been digested with the same enzymes to generate a pair of multicopy vectors expressing KPC2 and SHV12 respectively. These vectors were transformed into BW25113 pspB to generate strains NB27273-CDY0033 (expressing KPC2) and NB27273-CDY0030 (expressing SHV12). The pBAD18-kan vector also contains the TEM promoter region and signal sequence, (but lacks any intact β-lactamase genes) and was transformed into BW25113 pspB using standard protocols to generate the control strain NB27273-CDY0026. […] Susceptibility Testing
(§4) Minimal Inhibitory Concentrations (MICs) were determined by the broth microdilution method in accordance with Clinical and Laboratories Institute (CLSI) guidelines. In brief, fresh overnight bacterial cultures were suspended in sterile saline, and adjusted to a 0.5 McFarland turbidity standard. Bacterial suspensions were then diluted in cation adjusted Mueller-Hinton Broth (MHB II; BBL) to yield a final inoculum of approximately 5×10^5 colony-forming units (CFU)/mL. A master plate of antibiotics was prepared at a concentration equivalent to hundred-fold the highest desired final concentration in 100% dimethyl sulfoxide (DMSO). The master antibiotic plate was then diluted by serial twofold dilution with a multichannel pipette. The resulting dilution series of compounds were diluted 1:10 with sterile water leading to a 10% DMSO final concentration.

[2] = system: E. coli NB27273-CDY0033 (KPC2); test: MIC by broth microdilution, isogenic E. coli strain expressing KPC2; settings: Escherichia coli, read-out: Strain 2 MIC
Experimental: as §1, §2, §3, §4

[3] = system: E. coli NB27273-CDY0030 (SHV12); test: MIC by broth microdilution, isogenic E. coli strain expressing SHV12; settings: Escherichia coli, read-out: Strain 3 MIC
Experimental: as §1, §2, §3, §4

[4] = system: E. coli strain 25922; test: MIC by broth microdilution, E. coli strain 25922; settings: Escherichia coli, 25922, E. coli strain 25922; read-out: Ec 25922 (MIC)
How it was run: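 CLSI broth microdilution in cation-adjusted Mueller-Hinton broth, inoculum about 5×10^5 CFU/mL, 10% DMSO from the diluted series, 20 h at 35-37° C. MIC is the lowest concentration preventing visible growth, read by eye and at 600 nm.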

[5] = system: E. coli containing KPC-2; test: MIC by broth microdilution, E. coli containing KPC-2 (Ec KPC2 Iso); settings: Escherichia coli, read-out: Ec KPC2 Iso (MIC), E. coli containing KPC-2 (carbapenemase from Klebsiella pneumoniae)
How it was run: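 Host E. coli BW25113 pspB carrying multicopy pBAD18-kan plasmid with constitutive TEM-promoter KPC-2 expression (periplasmic signal sequence); broth microdilution per CLSI in cation-adjusted Mueller-Hinton broth, inoculum ~5×10^5 CFU/mL, compounds twofold serially diluted from DMSO masters (10% DMSO in dilution series added).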

Nc1nc(/C(=N/OC2(C(=O)O)CC2)C(=O)N[C@@H]2C(=O)N(S(=O)(=O)O)[C@@H]2CN2CCOC2=O)cs1 [Example 22, 1-(((Z)-(1-(2-aminothiazol-4-yl)-2-oxo-2-(((3S,4R)-2-oxo-4-((2-oxooxazolidin-3-yl)methyl)-1-sulfoazetidin-3-yl)amino)ethylidene)amino)oxy)cyclopropanecarboxylic acid]
MIC [1]: ≤ 0.06 µg/mL | MIC [2]: 0.125 µg/mL (≈ 0.241 µM) | MIC [3]: 0.5 µg/mL (≈ 0.964 µM) | MIC [4]: 0.25 µg/mL (≈ 0.482 µM) | MIC [5]: 0.125 µg/mL (≈ 0.241 µM)

N=C(NC1CCNCC1)c1ccc(OC[C@H](O/N=C(\C(=O)N[C@@H]2C(=O)N(S(=O)(=O)O)[C@@H]2Cn2cncn2)c2csc(N)n2)C(=O)O)cc1 [Example 31, (S)-2-(((Z)-(2-(((2R,3S)-2-((1H-1,2,4-triazol-1-yl)methyl)-4-oxo-1-sulfoazetidin-3-yl)amino)-1-(2-aminothiazol-4-yl)-2-oxoethylidene)amino)oxy)-3-(4-(N-(piperidin-4-yl)carbamimidoyl)-phenoxy)propanoic acid]
MIC [1]: 0.125 µg/mL (≈ 0.177 µM) | MIC [2]: 0.25 µg/mL (≈ 0.354 µM) | MIC [3]: 0.5 µg/mL (≈ 0.708 µM) | MIC [4]: 0.25 µg/mL (≈ 0.354 µM) | MIC [5]: 0.25 µg/mL (≈ 0.354 µM)
